Data: US9302988B2, “Fluoromethyl-substituted pyrrole carboxamides” (GRÜNENTHAL GMBH, priority 2012, dated 2016)

Target: T1, Human CaV2.2 channels (Homo sapiens, UniProt Q00975)
T1 construct: expressed in transfected cells
Assay: Fluorescent assay for CaV2.2 channels using potassium depolarization to induce channel opening (FLIPR, Fluo-4)
Type: cell-based
Details: 3 μM test compound, 30 mM KCl, HEK293 cells stably expressing human CaV2.2; read-out: %-Inhib (CaV2.2) @3 μM @30 mM KCl
Summary of the method: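 Channel block was read as the baseline-normalized peak Ca²⁺ signal (Fluo-4, 480/535 nm) after a high-KCl depolarizing addition (210 mM KCl buffer). Beforehand, compound sat 15 min at 25 °C on HEK293 cells carrying human CaV2.2, α2δ/β subunits and Kir2.3, in pH 7.4 buffer with 30 mM KCl.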

T1 sequence (Q00975 whole entry): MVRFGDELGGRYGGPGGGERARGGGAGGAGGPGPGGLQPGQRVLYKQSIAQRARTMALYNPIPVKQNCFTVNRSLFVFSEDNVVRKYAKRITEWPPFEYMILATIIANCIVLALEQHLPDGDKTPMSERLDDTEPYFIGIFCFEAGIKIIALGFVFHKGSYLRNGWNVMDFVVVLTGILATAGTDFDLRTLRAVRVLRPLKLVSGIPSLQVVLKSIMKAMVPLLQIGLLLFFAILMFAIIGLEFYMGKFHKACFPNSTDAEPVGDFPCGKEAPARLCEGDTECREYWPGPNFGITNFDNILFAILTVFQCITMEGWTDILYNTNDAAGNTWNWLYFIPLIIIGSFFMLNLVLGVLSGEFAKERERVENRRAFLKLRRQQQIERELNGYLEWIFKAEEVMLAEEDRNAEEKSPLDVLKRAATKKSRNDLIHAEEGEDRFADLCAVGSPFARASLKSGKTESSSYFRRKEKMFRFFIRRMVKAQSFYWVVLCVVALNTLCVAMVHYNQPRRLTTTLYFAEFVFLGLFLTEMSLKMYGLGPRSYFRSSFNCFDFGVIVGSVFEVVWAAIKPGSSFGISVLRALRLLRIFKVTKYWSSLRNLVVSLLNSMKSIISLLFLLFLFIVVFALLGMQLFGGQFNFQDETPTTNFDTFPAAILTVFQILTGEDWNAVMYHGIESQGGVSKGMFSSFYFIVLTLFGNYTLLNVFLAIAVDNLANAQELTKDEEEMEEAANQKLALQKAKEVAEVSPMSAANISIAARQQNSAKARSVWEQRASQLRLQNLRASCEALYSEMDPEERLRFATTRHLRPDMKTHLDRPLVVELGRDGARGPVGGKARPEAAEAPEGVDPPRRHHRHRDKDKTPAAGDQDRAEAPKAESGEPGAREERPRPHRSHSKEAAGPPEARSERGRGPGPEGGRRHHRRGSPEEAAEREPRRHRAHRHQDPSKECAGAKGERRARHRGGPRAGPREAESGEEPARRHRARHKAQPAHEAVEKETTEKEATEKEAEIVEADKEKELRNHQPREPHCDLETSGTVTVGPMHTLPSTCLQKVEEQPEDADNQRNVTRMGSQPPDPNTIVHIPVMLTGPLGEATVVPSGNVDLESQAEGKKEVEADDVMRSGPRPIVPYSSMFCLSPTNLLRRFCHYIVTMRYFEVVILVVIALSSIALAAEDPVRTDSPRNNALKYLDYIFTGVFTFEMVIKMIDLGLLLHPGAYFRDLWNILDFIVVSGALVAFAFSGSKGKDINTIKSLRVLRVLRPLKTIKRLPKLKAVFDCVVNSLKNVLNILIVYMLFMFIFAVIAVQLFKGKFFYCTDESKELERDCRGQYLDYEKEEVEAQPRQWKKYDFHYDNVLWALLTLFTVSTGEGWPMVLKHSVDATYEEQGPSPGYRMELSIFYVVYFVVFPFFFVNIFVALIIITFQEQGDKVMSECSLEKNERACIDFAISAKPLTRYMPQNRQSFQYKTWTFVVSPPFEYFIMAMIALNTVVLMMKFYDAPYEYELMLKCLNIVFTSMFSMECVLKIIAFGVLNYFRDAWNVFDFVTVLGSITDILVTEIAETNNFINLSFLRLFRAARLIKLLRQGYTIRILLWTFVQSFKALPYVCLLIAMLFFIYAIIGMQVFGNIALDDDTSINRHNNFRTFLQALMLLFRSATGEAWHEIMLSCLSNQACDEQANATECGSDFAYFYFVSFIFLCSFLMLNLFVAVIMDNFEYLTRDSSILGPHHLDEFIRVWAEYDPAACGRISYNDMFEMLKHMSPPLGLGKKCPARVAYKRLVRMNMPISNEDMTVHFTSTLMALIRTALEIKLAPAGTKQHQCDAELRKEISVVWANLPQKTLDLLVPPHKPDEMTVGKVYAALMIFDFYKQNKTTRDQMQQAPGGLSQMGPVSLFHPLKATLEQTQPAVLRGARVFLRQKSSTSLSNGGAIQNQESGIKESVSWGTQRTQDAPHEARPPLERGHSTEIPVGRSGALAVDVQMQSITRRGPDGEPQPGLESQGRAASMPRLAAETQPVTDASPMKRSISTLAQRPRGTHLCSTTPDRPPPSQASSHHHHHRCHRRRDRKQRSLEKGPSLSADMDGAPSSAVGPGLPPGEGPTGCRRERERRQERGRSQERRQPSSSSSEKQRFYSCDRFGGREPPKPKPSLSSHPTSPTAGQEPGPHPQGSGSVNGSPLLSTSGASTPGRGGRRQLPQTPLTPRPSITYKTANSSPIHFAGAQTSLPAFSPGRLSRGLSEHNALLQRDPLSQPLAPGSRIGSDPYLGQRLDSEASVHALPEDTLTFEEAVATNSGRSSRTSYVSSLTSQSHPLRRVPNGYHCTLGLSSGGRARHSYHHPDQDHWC
T1 sequence (P54289 25-1103, further chain): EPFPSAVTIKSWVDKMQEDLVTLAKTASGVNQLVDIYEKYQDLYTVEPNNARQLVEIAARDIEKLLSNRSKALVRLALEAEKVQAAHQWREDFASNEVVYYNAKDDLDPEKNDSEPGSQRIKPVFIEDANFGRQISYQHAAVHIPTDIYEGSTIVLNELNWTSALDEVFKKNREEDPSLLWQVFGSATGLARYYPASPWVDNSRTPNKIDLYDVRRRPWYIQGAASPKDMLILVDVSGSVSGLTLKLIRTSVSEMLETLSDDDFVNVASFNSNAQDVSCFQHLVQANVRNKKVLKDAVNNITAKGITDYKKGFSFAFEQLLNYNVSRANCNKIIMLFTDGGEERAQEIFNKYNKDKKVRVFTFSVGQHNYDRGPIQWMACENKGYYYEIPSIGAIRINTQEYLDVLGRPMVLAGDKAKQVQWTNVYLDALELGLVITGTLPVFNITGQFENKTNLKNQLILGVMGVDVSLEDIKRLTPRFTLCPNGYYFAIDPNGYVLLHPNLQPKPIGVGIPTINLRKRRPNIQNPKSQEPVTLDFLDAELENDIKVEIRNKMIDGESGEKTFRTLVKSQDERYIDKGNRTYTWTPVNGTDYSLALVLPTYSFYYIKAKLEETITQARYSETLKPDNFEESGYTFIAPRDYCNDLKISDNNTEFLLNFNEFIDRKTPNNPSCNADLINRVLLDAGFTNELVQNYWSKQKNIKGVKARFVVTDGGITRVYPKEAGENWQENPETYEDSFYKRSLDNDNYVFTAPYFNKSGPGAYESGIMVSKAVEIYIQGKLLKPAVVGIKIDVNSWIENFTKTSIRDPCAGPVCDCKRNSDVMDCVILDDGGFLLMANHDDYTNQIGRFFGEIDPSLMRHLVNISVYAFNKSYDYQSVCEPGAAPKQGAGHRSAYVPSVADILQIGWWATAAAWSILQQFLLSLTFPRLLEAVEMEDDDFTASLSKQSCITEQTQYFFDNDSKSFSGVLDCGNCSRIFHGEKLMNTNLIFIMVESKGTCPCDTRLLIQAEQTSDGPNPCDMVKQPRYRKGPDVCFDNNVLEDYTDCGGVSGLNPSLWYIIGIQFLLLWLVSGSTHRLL
T1 sequence (P54284 whole entry, further chain): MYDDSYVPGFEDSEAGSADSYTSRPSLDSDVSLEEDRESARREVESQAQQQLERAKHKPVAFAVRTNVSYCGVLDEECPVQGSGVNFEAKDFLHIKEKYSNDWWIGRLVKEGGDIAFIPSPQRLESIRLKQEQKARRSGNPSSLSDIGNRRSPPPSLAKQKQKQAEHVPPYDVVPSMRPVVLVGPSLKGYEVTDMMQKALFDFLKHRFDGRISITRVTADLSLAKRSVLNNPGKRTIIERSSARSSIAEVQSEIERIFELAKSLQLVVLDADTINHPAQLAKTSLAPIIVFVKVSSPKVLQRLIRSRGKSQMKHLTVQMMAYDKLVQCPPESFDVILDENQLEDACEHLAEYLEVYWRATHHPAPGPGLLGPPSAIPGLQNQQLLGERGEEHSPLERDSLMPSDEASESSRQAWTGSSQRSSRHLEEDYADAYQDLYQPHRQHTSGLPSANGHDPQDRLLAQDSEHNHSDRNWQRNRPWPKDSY

Compound	inhibition at 3 µM
CN(CC1(C)COC1)C(=O)c1c(-c2ccc(Cl)cc2)cc(C(F)(F)F)n1Cc1ccccc1 [SC-78, 1-Benzyl-3-(4-chlorophenyl)-N-methyl-N-[(3-methyl-oxetan-3-yl)-methyl]-5-(trifluoromethyl)-1H-pyrrole-2-carboxylic acid amide]	> 95%
CN(CC(C)(C)CO)C(=O)c1c(-c2ccc(Cl)cc2)cc(C(F)(F)F)n1Cc1ccccc1 [SC-79, 1-Benzyl-3-(4-chlorophenyl)-N-(3-hydroxy-2,2-dimethyl-propyl)-N-methyl-5-(trifluoromethyl)-1H-pyrrole-2-carboxylic acid amide]	> 95%
CN(C)C(=O)c1c(-c2ccc(Cl)cc2)cc(C(F)(F)F)n1Cc1ccccc1 [SC-80, 1-Benzyl-3-(4-chlorophenyl)-N,N-dimethyl-5-(trifluoromethyl)-1H-pyrrole-2-carboxylic acid amide]	75 to 95%
O=C1CN(C(=O)c2c(-c3ccc(Cl)cc3)cc(C(F)(F)F)n2Cc2cccc(Cl)c2)CCN1 [SC-81, 4-[3-(4-Chlorophenyl)-1-[(3-chlorophenyl)-methyl]-5-(trifluoromethyl)-1H-pyrrole-2-carbonyl]-piperazin-2-one]	> 95%
CC1(C)CN(C(=O)c2c(-c3ccc(Cl)cc3)cc(C(F)(F)F)n2Cc2ccccc2)CCN1 [SC-82, [1-Benzyl-3-(4-chlorophenyl)-5-(trifluoromethyl)-1H-pyrrol-2-yl]-(3,3-dimethyl-piperazin-1-yl)-methanone]	75 to 95%
CN(C(=O)c1c(-c2ccc(Cl)cc2)cc(C(F)(F)F)n1Cc1ccccc1)C1CCS(=O)(=O)C1 (centres unmarked) [SC-83, 1-Benzyl-3-(4-chlorophenyl)-N-(1,1-dioxo-thiolan-3-yl)-N-methyl-5-(trifluoromethyl)-1H-pyrrole-2-carboxylic acid amide]	> 95%
CN(CCC(C)(C)C)C(=O)c1c(-c2ccc(Cl)cc2)cc(C(F)(F)F)n1Cc1ccccc1 [SC-84, 1-Benzyl-3-(4-chlorophenyl)-N-(3,3-dimethyl-butyl)-N-methyl-5-(trifluoromethyl)-1H-pyrrole-2-carboxylic acid amide]	40 to 75%
CN(CC(C)(C)N1CCOCC1)C(=O)c1c(-c2ccc(Cl)cc2)cc(C(F)(F)F)n1Cc1ccccc1 [SC-85, 1-Benzyl-3-(4-chlorophenyl)-N-methyl-N-(2-methyl-2-morpholin-4-yl-propyl)-5-(trifluoromethyl)-1H-pyrrole-2-carboxylic acid amide]	> 95%
O=C(c1c(-c2ccc(Cl)cc2F)cc(C(F)(F)F)n1Cc1ccccc1)N1CCOCC1 [SC-86, [1-Benzyl-3-(4-chloro-2-fluoro-phenyl)-5-(trifluoromethyl)-1H-pyrrol-2-yl]-morpholin-4-yl-methanone]	> 95%
CN(CC(C)(C)O)C(=O)c1c(-c2ccc(Cl)cc2F)cc(C(F)(F)F)n1Cc1ccccc1 [SC-87, 1-Benzyl-3-(4-chloro-2-fluoro-phenyl)-N-(2-hydroxy-2-methyl-propyl)-N-methyl-5-(trifluoromethyl)-1H-pyrrole-2-carboxylic acid amide]	> 95%
CN(CC(C)(C)C)C(=O)c1c(-c2ccc(Cl)cc2F)cc(C(F)(F)F)n1Cc1ccccc1 [SC-88, 1-Benzyl-3-(4-chloro-2-fluoro-phenyl)-N-(2,2-dimethyl-propyl)-N-methyl-5-(trifluoromethyl)-1H-pyrrole-2-carboxylic acid amide]	75 to 95%
O=C1CN(C(=O)c2c(-c3ccc(Cl)cc3F)cc(C(F)(F)F)n2Cc2ccccc2)CCN1 [SC-89, 4-[1-Benzyl-3-(4-chloro-2-fluoro-phenyl)-5-(trifluoromethyl)-1H-pyrrole-2-carbonyl]-piperazin-2-one]	75 to 95%
CN(CCS(C)(=O)=O)C(=O)c1c(-c2ccc(Cl)cc2F)cc(C(F)(F)F)n1Cc1ccccc1 [SC-90, 1-Benzyl-3-(4-chloro-2-fluoro-phenyl)-N-methyl-N-(2-methylsulfonyl-ethyl)-5-(trifluoromethyl)-1H-pyrrole-2-carboxylic acid amide]	> 95%
CN(CC(C)(C)S(C)(=O)=O)C(=O)c1c(-c2ccc(Cl)cc2)cc(C(F)(F)F)n1Cc1ccccc1 [SC-92, 1-Benzyl-3-(4-chlorophenyl)-N-methyl-N-(2-methyl-2-methylsulfonyl-propyl)-5-(trifluoromethyl)-1H-pyrrole-2-carboxylic acid amide]	> 95%
Cc1c(-c2ccc(Cl)cc2)c(C(=O)N2CC(F)(F)C2)n(Cc2ccccc2)c1C(F)(F)F [SC-93, [1-Benzyl-3-(4-chlorophenyl)-4-methyl-5-(trifluoromethyl)-1H-pyrrol-2-yl]-(3,3-difluoro-azetidin-1-yl)-methanone]	75 to 95%
O=C(c1c(-c2ccc(Cl)cc2)cc(C(F)(F)F)n1Cc1ccccc1)N1CC(F)(F)C1 [SC-94, [1-Benzyl-3-(4-chlorophenyl)-5-(trifluoromethyl)-1H-pyrrol-2-yl]-(3,3-difluoro-azetidin-1-yl)-methanone]	75 to 95%
Cc1c(-c2ccc(F)cc2)c(C(=O)N2CC(F)(F)C2)n(Cc2ccccc2)c1C(F)(F)F [SC-95, [1-Benzyl-3-(4-fluorophenyl)-4-methyl-5-(trifluoromethyl)-1H-pyrrol-2-yl]-(3,3-difluoro-azetidin-1-yl)-methanone]	75 to 95%
Cc1c(-c2ccc(C(F)(F)F)cc2)c(C(=O)N2CC(F)(F)C2)n(Cc2ccccc2)c1C(F)(F)F [SC-96, [1-Benzyl-4-methyl-5-(trifluoromethyl)-3-[4-(trifluoromethyl)-phenyl]-1H-pyrrol-2-yl]-(3,3-difluoro-azetidin-1-yl)-methanone]	40 to 75%
Cc1c(-c2ccc(OC(F)(F)F)cc2)c(C(=O)N2CC(F)(F)C2)n(Cc2ccccc2)c1C(F)(F)F [SC-97, [1-Benzyl-4-methyl-5-(trifluoromethyl)-3-[4-(trifluoromethyloxy)-phenyl]-1H-pyrrol-2-yl]-(3,3-difluoro-azetidin-1-yl)-methanone]	40 to 75%
Cc1c(-c2ccc(Cl)c(F)c2)c(C(=O)N2CC(F)(F)C2)n(Cc2ccccc2)c1C(F)(F)F [SC-98, [1-Benzyl-3-(4-chloro-3-fluoro-phenyl)-4-methyl-5-(trifluoromethyl)-1H-pyrrol-2-yl]-(3,3-difluoro-azetidin-1-yl)-methanone]	40 to 75%
Cc1c(-c2ccc(F)c(Cl)c2)c(C(=O)N2CC(F)(F)C2)n(Cc2ccccc2)c1C(F)(F)F [SC-99, [1-Benzyl-3-(3-chloro-4-fluoro-phenyl)-4-methyl-5-(trifluoromethyl)-1H-pyrrol-2-yl]-(3,3-difluoro-azetidin-1-yl)-methanone]	40 to 75%
Cc1c(-c2ccc(Cl)cc2F)c(C(=O)N2CC(F)(F)C2)n(Cc2ccccc2)c1C(F)(F)F [SC-100, [1-Benzyl-3-(4-chloro-2-fluoro-phenyl)-4-methyl-5-(trifluoromethyl)-1H-pyrrol-2-yl]-(3,3-difluoro-azetidin-1-yl)-methanone]	75 to 95%
Cc1c(-c2ccc(F)cc2)c(C(=O)N2CCOCC2)n(Cc2ccccc2)c1C(F)(F)F [SC-101, [1-Benzyl-3-(4-fluorophenyl)-4-methyl-5-(trifluoromethyl)-1H-pyrrol-2-yl]-morpholin-4-yl-methanone]	> 95%
